Test: Heat transformations of Dolasetron mesylate forms (solid-state form after heating)
Assay type: physicochemical

CS(=O)(=O)O.O=C(OC1C[C@@H]2CC3C[C@H](C1)N2CC3=O)c1c[nH]c2ccccc12 (stereo partly drawn) [Form I, Dolasetron Mesylate]
HEAT TRANSFORMATION RESULT (heated at 190 °C, 30 min.): Amorphous > III

O=C(OC1CC2CC3CC(C1)N2CC3=O)c1c[nH]c2ccccc12 (stereo not drawn) [Form II, (2α,6α,8α,9αβ)-octahydro-3-oxo-2,6-methano-2H-quinolizin-8-yl-1H-indole-3-carboxylate monomethanesulfonate monohydrate, reference compound]
HEAT TRANSFORMATION RESULT (second TEMP./TIME) (after 160 °C, 30 min, then 160, 30 min): VII > III

CS(=O)(=O)O.O=C(OC1C[C@@H]2CC3C[C@H](C1)N2CC3=O)c1c[nH]c2ccccc12 (stereo partly drawn) [Form IV, Dolasetron mesylate]
HEAT TRANSFORMATION RESULT (heated at 160 °C, 60 min., listed as IV): VII + IV

CS(=O)(=O)O.O=C(OC1C[C@@H]2CC3C[C@H](C1)N2CC3=O)c1c[nH]c2ccccc12 (stereo partly drawn) [Form V, Dolasetron mesylate]
HEAT TRANSFORMATION RESULT (heated at 160 °C, 60 min., listed as V): XII

CS(=O)(=O)O.O=C(OC1C[C@@H]2CC3C[C@H](C1)N2CC3=O)c1c[nH]c2ccccc12 (stereo partly drawn) [Form VIII, Dolasetron mesylate]
HEAT TRANSFORMATION RESULT (heated at 160 °C, 30 min): XII | HEAT TRANSFORMATION RESULT (heated at 160 °C, 60 min., listed as VIII): XII

Reference: US20070203177A1, “Forms of dolasetron mesylate and processes for their preparation” (priority 2006, published 2007)
